The subject of one assay is most fungi. Particulars: cited from earlier work.
Another assay has as its system Trichoderma harzianum. Nature of the assay: Mould growth on Potato Dextrose Agar plates containing natamycin. The assay is classed as cell-based. Particulars: 5 days at 25° C. The procedure: (§1) Each of these organisms were field isolates.
(§2) Potato Dextrose Agar plates containing 0, 10 and 20 ppm of natamycin and mould suspensions were prepared using well known methods.
(§3) The freshly prepared suspensions were dilluted to final concentrations of 10^4 Colony Forming Units/ml.
(§4) 10 μl of each mould suspensions was inoculated in a spot on the agar plates (in duplo). The plates were incubated for 5 days at 25° C.
(§5) After 5 days of incubation on the control plates containing no natamycin, clear colonies were formed.

The next assay concerns Dactylium dendroides. The description is as above. Particulars: 5 days at 25° C. The assay is classed as cell-based. As for the experimental part:
as §1, §2, §3, §4, §5

The subject of a further assay is Mycogone pernicosa. Described as above. Format: cell-based. Conditions: 5 days at 25° C. The procedure:
as §1, §2, §3, §4, §5

In the next assay the test system is Verticillium fungicola. Described as above. The assay is classed as cell-based. Conditions: 5 days at 25° C. As for the experimental part: as §1, §2, §3, §4, §5
Assay [1] relates to mycelium of most mushroom species, e.g. A. bisporus. Conditions: cited from earlier work.
The subject of the next assay is Agaricus bisporus. Format: in vivo. Particulars: after 3 flushes. The procedure: This example describes the effect of natamycin on the yield of mushrooms. Tubs having an area of 0.26 m^2 were filled with commercially prepared pasteurized mushroom substrate inoculated with spawn (seed) of the commercial button mushroom Agaricus bisporus. Following colonization by the mushroom fungus, the substrate was covered by a layer of peat moss, mixed with limestone (the casing layer) and further incubated under well known standard conditions until mycelial strands were visible on the surface. Fruiting bodies were initiated by manipulating the external environment using methods well known in the industry. 9 tubs were treated five days prior to the first flush by applying an aqueous solution containing 10 ppm of natamycin, as a control 9 tubs were treated the same way however without natamycin. The aqueous solution was applied at a rate of 1.84 liter per square meter and the mushroom beds were allowed to continue growing.

Regarding `C[C@@H]1C/C=C/C=C/C=C/C=C/[C@H](O[C@@H]2O[C@H](C)[C@@H](O)[C@H](N)[C@@H]2O)C[C@@H]2O[C@](O)(C[C@@H](O)C[C@H]3O[C@@H]3/C=C/C(=O)O1)C[C@H](O)[C@H]2C(=O)O` [natamycin], the “MIC (Minimal Inhibitory Concentration)” value with most fungi was “less than 20 ppm”. The “growth on agar plate” value in the assay with Trichoderma harzianum (10 ppm natamycin), in the assay on Trichoderma harzianum (20 ppm natamycin), in the assay with Dactylium dendroides (10 ppm natamycin), in the assay on Dactylium dendroides (20 ppm natamycin), with Mycogone pernicosa (10 ppm natamycin) and in the assay with Mycogone pernicosa (20 ppm natamycin) was “no growth” each time. The “growth on agar plate” value is on record as “only some slight growth” with Verticillium fungicola (10 ppm natamycin) and “no growth” in the assay on Verticillium fungicola (20 ppm natamycin). In assay [1], the “inhibition of mushroom mycelium” value is recorded as “inhibited”. Moreover, the average yield in the assay on Agaricus bisporus (10 ppm natamycin aqueous solution, 1.84 liter per square meter, five days prior to first flush, 9 tubs) was determined as 3.94 pounds per square feet. Besides, the “yield compared to the untreated control” value with Agaricus bisporus (10 ppm natamycin) was “statistically significant yield increase”.

The values above are taken from US6655081B1, “Mushrooms” (DSM N.V., priority 1999, dated 2003).
